Laboratory results from patent US20080107722A1, “Method For Loading Multiple Agents Into Delivery Vehicles” (priority 2004, published 2008).

Assays:
[1] = Simultaneous loading of gemcitabine and doxorubicin into preformed liposomes; format: physicochemical; conditions: for loading and retention in liposomes: 60° C., DSPC/DSPG/Cholesterol 70:20:10, FIG. 4C; for simultaneous loading in high cholesterol-containing liposomes: DMPC/Cholesterol liposomes
Protocol: (§1) At various time points after initiation of drug loading, aliquots were removed and passed through a Sephadex® G-50 spin column to separate free from encapsulated drug. To a specified volume of eluant, Triton X-100 or N-ocyl beta-D-glucopyranoside (OGP) was added to solubilize the liposomes. Following addition of detergent, the mixture was heated to the cloud point of the detergent and allowed to cool to room temperature before measurement of the absorbance or fluorescence. Drug concentrations were calculated by comparison to a standard curve. Lipid levels were measured by liquid scintillation counting.
Gemcitabine and doxorubicin were loaded into DSPC/DSPG/Cholesterol liposomes at 37° C., 50° C. and 60° C. […] The lipid films were hydrated in 100 mM Cu(II)gluconate, adjusted to pH 7.4 with triethanolamine (TEA) and extruded at 70° C. The liposomes were buffer exchanged into HBS, pH 7.4 by crossflow dialysis. Prior to addition of drugs, the liposomes were preheated to the appropriate loading temperature for one minute. Gemcitabine (with tracer amounts of ^3H-gemcitabine) and doxorubicin were combined then added simultaneously to the pre-heated liposomes. Gemcitabine was added to a drug concentration of 30 μmol/mL and doxorubicin was added to a drug concentration of 33 μmol/mL. […] Aliquots were removed and analyzed for drug and lipid content at designated time intervals. The extent of doxorubicin loading was determined spectrophotometrically and gemcitabine and lipid levels were determined by liquid scintillation counting.

[2] = passive then Na+/K+ gradient with valinomycin; cited from earlier work
[3] = Simultaneous loading of FUDR and daunorubicin into preformed DSPC/DSPG/Cholesterol liposomes; format: physicochemical; conditions: 50° C.; for loading in liposomes: 100 mM Cu(II)gluconate pH 7.0, FIG. 3; for retention during the course of the experiment: FIG. 3
Protocol: as §1
FUDR and daunorubicin were loaded at 50° C. into pre-formed DSPC/DSPG/Cholesterol liposomes (70:20:10) containing 100 mM Cu(II)gluconate adjusted to pH 7.0 with triethanolamine (TEA). The liposomes were buffer exchanged into 300 mM sucrose, 40 mM phosphate, 1 mM EDTA, pH 7.0 by crossflow dialysis to remove any copper(II)gluconate from the extraliposomal solution. Prior to addition of drugs, the liposomes were diluted in SPE and preheated at 50° C. for one minute. FUDR (with trace amounts of ^3H-FUDR) and daunorubicin were combined then added simultaneously to the pre-heated liposomes. FUDR was added at a drug concentration of 60 μmol/mL and daunorubicin was added at a drug-to-lipid mole ratio of 0.1:1. […] Aliquots were removed and analyzed for drug and lipid content at designated time intervals. The extent of daunorubicin loading was determined spectrophotometrically and FUDR and lipid levels were determined by liquid scintillation counting.

[4] = Simultaneous loading of irinotecan and floxuridine into low cholesterol DSPC/DSPG/Cholesterol liposomes (data not shown); format: physicochemical; conditions: low cholesterol-containing DSPC/DSPG/Cholesterol liposomes
[5] = Simultaneous loading of FUDR and cpt-11 into DSPC/Cholesterol (high-cholesterol) liposomes; format: physicochemical; conditions: 50° C.; for loading in liposomes: DSPC/Cholesterol, 100 mM Cu(II)gluconate pH 7.0; for drug ratio of FUDR-to-cpt-11 during the course of the experiment: FIG. 6
Protocol: as §1
Lipid films of DSPC/Cholesterol at a mole ratio of 55:45 were prepared as previously described and then hydrated in 100 mM Cu(II)gluconate, adjusted to pH 7.0 with triethanolamine (TEA). The liposomes were buffer exchanged into SPE, pH 7.0. Prior to addition of drugs, the liposomes were preheated to 50° C. for one minute. FUDR (with tracer amounts of ^3H-FUDR) and cpt-11 were combined then added simultaneously to the pre-heated liposomes. FUDR was added to a final drug concentration of 110 μmol/mL and cpt-11 was added to a final drug concentration of 7.5 μmol/mL. The liposomes and drugs were incubated for one hour to allow for the passive uptake of FUDR concurrent with the active uptake of Irinotecan. Aliquots were removed and analyzed for drug and lipid content at designated time intervals. The extent of cpt-11 loading was determined spectrophotometrically and FUDR and lipid levels were determined by liquid scintillation counting.

[6] = Simultaneous loading of cytarabine and daunorubicin into preformed DSPC/DSPG/Cholesterol (70:20:10) liposomes, effect of temperature; format: physicochemical; conditions: for loading and retention in liposomes: 40° C., 100 mM Cu(II)gluconate pH 7.4 inside, FIG. 1A
Protocol: (§2) Lipids were dissolved in chloroform:methanol:water (95:4:1 vol/vol/vol) and subsequently dried under a stream of nitrogen gas and placed in a vacuum pump to remove solvent. Unless otherwise specified, trace levels of radioactive lipid ^14C-DPPC was added to quantify lipid during the formulation process. The resulting lipid film was placed under high vacuum for a minimum of 2 hours. The lipid film was hydrated in the solution indicated to form multilamellar vesicles (MLVs). The resulting preparation was extruded 10 times through stacked polycarbonate filters with an extrusion apparatus (Lipex Biomembranes, Vancouver, BC) to achieve a mean liposome size between 80 and 150 nm. All constituent lipids of liposomes are reported in mole %.
as §1
Lipid films of DSPC/DSPG/Cholesterol at a mole ratio of 70:20:10 were prepared as described above in the method section. The lipid films were hydrated in 100 mM Cu(II)gluconate adjusted to pH 7.4 with triethanolamine (TEA) and extruded at 70° C. The liposomes were buffer exchanged into 300 mM sucrose, 20 mM phosphate, 1 mM EDTA (SPE), pH 7.4 by crossflow dialysis to remove any copper(II)gluconate from the extraliposomal solution. Prior to addition of drugs, the liposomes were preheated to the appropriate loading temperature for one minute. […] Aliquots were removed and analyzed for drug and lipid content at designated time intervals.

[7] = Simultaneous loading of cytarabine and daunorubicin into DSPC/DSPG/Cholesterol liposomes, effect of internal Cu(II)gluconate concentration; format: physicochemical; conditions: 50° C.; for daunorubicin loading (percent encapsulation): FIG. 2B
Protocol: as §2, §1
Lipid films of DSPC/DSPG/Cholesterol at a mole ratio of 70:20:10 were prepared as described above in the method section. The lipid films were hydrated in the designated Cu(II)gluconate concentration and adjusted to pH 7.0 with triethanolamine (TEA). The liposomes were buffer exchanged into 300 mM sucrose, 20 mM sodium phosphate, pH 7.0 by crossflow dialysis to remove any copper(II)gluconate from the extraliposomal solution. Prior to addition of drugs, the liposomes were diluted in SPE and preheated at 50° C. for one minute. […] Aliquots were removed and analyzed for drug and lipid content at designated time intervals. The extent of daunorubicin loading was determined spectrophotometrically and cytarabine and lipid levels were determined by liquid scintillation counting.

[8] = Simultaneous loading of daunorubicin and cytarabine into DMPC/Cholesterol liposomes by citrate pH-gradient; format: physicochemical; conditions: 45° C. versus room temperature or 40° C., 300 mM citrate pH 4 inside, FIG. 5
Protocol: as §1
Aliquots were removed and analyzed for drug and lipid content at designated time intervals.

[9] = co-loaded with mitoxantrone in a single liposome; cited from earlier work
[10] = 37° C., DSPC/DSPG/Cholesterol 70:20:10, FIG. 4A
[11] = 50° C., DSPC/DSPG/Cholesterol 70:20:10, FIG. 4B

Nc1ccn([C@@H]2O[C@H](CO)[C@@H](O)C2(F)F)c(=O)n1 [gemcitabine, Gemcitabine]
loading in liposomes [1, 10]: could load effectively | loading in liposomes [1, 11]: load to minimal levels and then quickly leaks | loading and retention in liposomes [1]: Optimal loading and retention | simultaneous loading in high cholesterol-containing liposomes [1]: hindered by aggregation

CN(Cc1cnc2nc(N)nc(N)c2n1)c1ccc(C(=O)N[C@@H](CCC(=O)O)C(=O)O)cc1 [methotrexate]
available drug encapsulated [2]: 33%

O=c1[nH]c(=O)n([C@H]2C[C@H](O)[C@@H](CO)O2)cc1F [FUDR, Floxuridine]
loading in liposomes [3]: loaded to sufficient levels | retention during the course of the experiment [3]: well maintained | loading in liposomes [4]: sufficient | loading in liposomes [5]: effectively loaded | drug ratio of FUDR-to-cpt-11 during the course of the experiment [5]: maintained at a sufficient level

COc1cccc2c1C(=O)c1c(O)c3c(c(O)c1C2=O)C[C@@](O)(C(=O)CO)C[C@@H]3O[C@H]1C[C@H](N)[C@H](O)[C@H](C)O1 [doxorubicin]
loading in liposomes [1, 10]: did not load to sufficient levels | loading in liposomes [1, 11]: superior to the gemcitabine loading | loading and retention in liposomes [1]: Optimal loading and retention | simultaneous loading in high cholesterol-containing liposomes [1]: hindered by aggregation

COc1cccc2c1C(=O)c1c(O)c3c(c(O)c1C2=O)C[C@@](O)(C(C)=O)C[C@@H]3O[C@H]1C[C@H](N)[C@H](O)[C@H](C)O1 [daunorubicin]
loading in liposomes [3]: loaded to sufficient levels | retention during the course of the experiment [3]: well maintained | loading and retention in liposomes [6]: efficiently loaded and retained | loading in liposomes ([6]; 50° C., FIG. 1B): load to adequate levels | retention in liposomes during the experiment ([6]; 50° C., FIG. 1B): effectively retained | loading in liposomes ([6]; 60° C., FIG. 1C): loads at this temperature | retention in liposomes ([6]; 60° C., FIG. 1C): not well-retained | daunorubicin loading (percent encapsulation) ([7]; 25 mM copper gluconate): compromised | daunorubicin loading (percent encapsulation) ([7]; 100 mM, 75 mM and 50 mM copper gluconate): sufficient | simultaneous loading efficiency [8]: more efficient

CCc1c2c(nc3ccc(OC(=O)N4CCC(N5CCCCC5)CC4)cc13)-c1cc3c(c(=O)n1C2)COC(=O)[C@]3(O)CC [cpt-11, irinotecan]
loading in liposomes [4]: sufficient | loading in liposomes [5]: effectively loaded | drug ratio of FUDR-to-cpt-11 during the course of the experiment [5]: maintained at a sufficient level

Nc1ccn([C@@H]2O[C@H](CO)[C@@H](O)[C@@H]2O)c(=O)n1 [cytarabine]
loading and retention in liposomes [6]: less than desirable | loading in liposomes ([6]; 50° C., FIG. 1B): load to adequate levels | retention in liposomes during the experiment ([6]; 50° C., FIG. 1B): effectively retained | loading in liposomes ([6]; 60° C., FIG. 1C): compromised compared to loading at 50 °C | cytarabine loading during simultaneous uptake of daunorubicin ([7]; 25, 50, 75 and 100 mM Cu(II)gluconate, FIG. 2A): sufficient | extent of cytarabine loading ([7]; 25 and 50 mM versus 75 mM and 100 mM Cu(II)gluconate, FIG. 2A): improved

CC[C@]1(O)C[C@H]2CN(CCc3c([nH]c4ccccc34)[C@@](C(=O)OC)(c3cc4c(cc3OC)N(C=O)[C@H]3[C@@](O)(C(=O)OC)[C@H](OC(C)=O)[C@]5(CC)C=CCN6CC[C@]43[C@@H]65)C2)C1 [vincristine]
release of entrapped drug in vivo [9]: rapid release
